Values of other authors, collected in US20100112083A1, “PHARMACEUTICAL PRODUCT FOR MODULATING BONE FORMATION, PROCESS FOR MODULATING BONE FORMATION” (priority 2007, published 2010).

Tested on: mesenchymal stem cells
Conditions: by activating sirtuin protein Sirt1

Oc1ccc(/C=C/c2cc(O)cc(O)c2)cc1 [trans-resveratrol]
differentiation of mesenchymal stem cells into osteoblasts: promoted the selective differentiation
